Test results from ChEMBL document CHEMBL4622932, “Design, synthesis and biological evaluation of new Myo-inositol derivatives as potential RAS inhibitors” (Bioorg Med Chem Lett, 2020).

How the values were obtained:
[1] = molecular target: GTPase KRas (Homo sapiens) (UniProt P01116); assay: Inhibition of KRAS in human MDA-MB-231 cells assessed as reduction in ERK1/2 137F5 protein level at 15 uM measured after 24 hrs by Western blot analysis relative to control; format: cell-based
[2] = molecular target: GTPase KRas (Homo sapiens) (UniProt P01116); assay: Inhibition of KRAS in human MDA-MB-231 cells assessed as reduction in Pan RAS protein level at 15 uM measured after 24 hrs by Western blot analysis relative to control; format: cell-based
MDA-MB-231 [3] = assay: Cell cycle arrest in human MDA-MB-231 cells assessed as accumulation at G2 phase at 15 uM measured after 48 hrs by propidium iodide/RNase staining based flow cytometry (reference value: 3.35 %); format: functional
[4] = molecular target: GTPase KRas (Homo sapiens) (UniProt P01116); assay: Inhibition of KRAS in human MDA-MB-231 cells assessed as reduction in phosphorylation of ERK measured after 24 hrs by Western blot analysis; format: cell-based
MDA-MB-231 [5] = assay: Induction of apoptosis in human MDA-MB-231 cells assessed as live cells at 15 uM measured after 48 hrs by annexinV-FITC/propidium iodide staining based flow cytometry (reference value: 99 %); format: functional
MDA-MB-231 [6] = assay: Antiproliferative activity against human MDA-MB-231 cells reduction in cell viability measured after 48 hrs by MTT assay; format: functional, cell-based
[7] = molecular target: GTPase KRas (Homo sapiens) (UniProt P01116); assay: Inhibition of KRAS in human MDA-MB-231 cells assessed as reduction in MEK1/2 9G3 protein level at 25 uM measured after 24 hrs by Western blot analysis relative to control; format: cell-based
MDA-MB-231 [8] = assay: Induction of necrosis in human MDA-MB-231 cells; format: functional, cell-based
[9] = molecular target: GTPase KRas (Homo sapiens) (UniProt P01116); assay: Inhibition of KRAS in human MCF7 cells assessed as reduction in ERK1/2 137F5 protein level at 35 uM measured after 24 hrs by Western blot analysis relative to control; format: cell-based
MCF7 [10] = assay: Induction of apoptosis in human MCF7 cells assessed as necrotic cells at 25 uM measured after 48 hrs by annexinV-FITC/propidium iodide staining based flow cytometry (reference value: 0.08 %); format: functional
MDA-MB-231 [11] = assay: Induction of apoptosis in human MDA-MB-231 cells assessed as late apoptotic cells at 15 uM measured after 48 hrs by annexinV-FITC/propidium iodide staining based flow cytometry (reference value: 0 %); format: functional
MDA-MB-231 [12] = assay: Induction of apoptosis in human MDA-MB-231 cells assessed as necrotic cells at 15 uM measured after 48 hrs by annexinV-FITC/propidium iodide staining based flow cytometry (reference value: 0.31 %); format: functional
[13] = molecular target: GTPase KRas (Homo sapiens) (UniProt P01116); assay: Inhibition of KRAS in human MDA-MB-231 cells assessed as reduction in MEK1/2 9G3 protein level at 15 uM measured after 24 hrs by Western blot analysis relative to control; format: cell-based
MCF7 [14] = assay: Induction of apoptosis in human MCF7 cells assessed as early apoptotic cells at 15 uM measured after 48 hrs by annexinV-FITC/propidium iodide staining based flow cytometry (reference value: 0.04 %); format: functional
[15] = molecular target: GTPase KRas (Homo sapiens) (UniProt P01116); assay: Inhibition of KRAS in human MDA-MB-231 cells assessed as reduction in phosphorylated MEK1/2 at Ser217/221 residues protein level at 25 uM measured after 24 hrs by Western blot analysis relative to control; format: cell-based
MCF7 [16] = assay: Induction of apoptosis in human MCF7 cells assessed as necrotic cells at 15 uM measured after 48 hrs by annexinV-FITC/propidium iodide staining based flow cytometry (reference value: 0.08 %); format: functional
[17] = molecular target: GTPase KRas (Homo sapiens) (UniProt P01116); assay: Inhibition of KRAS in human MCF7 cells assessed as reduction in Pan RAS protein level at 35 uM measured after 24 hrs by Western blot analysis relative to control; format: cell-based
[18] = molecular target: GTPase KRas (Homo sapiens) (UniProt P01116); assay: Inhibition of KRAS in human MDA-MB-231 cells assessed as reduction in phosphorylated ERK1/2 at Thr185/Tyr187 residues protein level at 15 uM measured after 24 hrs by Western blot analysis relative to control; format: cell-based
MDA-MB-231 [19] = assay: Induction of apoptosis in human MDA-MB-231 cells assessed as late apoptotic cells at 25 uM measured after 48 hrs by annexinV-FITC/propidium iodide staining based flow cytometry (reference value: 0 %); format: functional
[20] = molecular target: GTPase KRas (Homo sapiens) (UniProt P01116); assay: Inhibition of KRAS in human MDA-MB-231 cells assessed as reduction in phosphorylated ERK1/2 at Thr185/Tyr187 residues protein level at 35 uM measured after 24 hrs by Western blot analysis relative to control; format: cell-based
[21] = molecular target: GTPase KRas (Homo sapiens) (UniProt P01116); assay: Inhibition of KRAS in human MCF7 cells assessed as reduction in ERK1/2 137F5 protein level at 15 uM measured after 24 hrs by Western blot analysis relative to control; format: cell-based
MDA-MB-231 [22] = assay: Induction of apoptosis in human MDA-MB-231 cells assessed as early apoptotic cells at 25 uM measured after 48 hrs by annexinV-FITC/propidium iodide staining based flow cytometry (reference value: 0.69 %); format: functional
[23] = molecular target: GTPase KRas (Homo sapiens) (UniProt P01116); assay: Inhibition of KRAS in human MDA-MB-231 cells assessed as reduction in phosphorylated RAF-1 E1 protein level at 15 uM measured after 24 hrs by Western blot analysis relative to control; format: cell-based
[24] = molecular target: GTPase KRas (Homo sapiens) (UniProt P01116); assay: Inhibition of KRAS in human MCF7 cells assessed as reduction in MEK1/2 9G3 protein level at 15 uM measured after 24 hrs by Western blot analysis relative to control; format: cell-based
MDA-MB-231 [25] = assay: Cell cycle arrest in human MDA-MB-231 cells assessed as accumulation at S phase at 25 uM measured after 48 hrs by propidium iodide/RNase staining based flow cytometry (reference value: 22.09 %); format: functional
[26] = molecular target: GTPase KRas (Homo sapiens) (UniProt P01116); assay: Inhibition of KRAS in human MCF7 cells assessed as reduction in phosphorylated MEK1/2 at Ser217/221 residues protein level at 15 uM measured after 24 hrs by Western blot analysis relative to control; format: cell-based
[27] = molecular target: GTPase KRas (Homo sapiens) (UniProt P01116); assay: Inhibition of KRAS in human MCF7 cells assessed as reduction in phosphorylated RAF-1 E1 protein level at 35 uM measured after 24 hrs by Western blot analysis relative to control; format: cell-based
[28] = molecular target: GTPase KRas (Homo sapiens) (UniProt P01116); assay: Inhibition of KRAS in human MCF7 cells assessed as reduction in phosphorylated RAF-1 E1 protein level at 25 uM measured after 24 hrs by Western blot analysis relative to control; format: cell-based
[29] = molecular target: GTPase KRas (Homo sapiens) (UniProt P01116); assay: Inhibition of KRAS in human MDA-MB-231 cells assessed as reduction in phosphorylation of MEK measured after 24 hrs by Western blot analysis; format: cell-based
MCF7 [30] = assay: Induction of apoptosis in human MCF7 cells assessed as live cells at 15 uM measured after 48 hrs by annexinV-FITC/propidium iodide staining based flow cytometry (reference value: 99.71 %); format: functional
[31] = molecular target: GTPase KRas (Homo sapiens) (UniProt P01116); assay: Inhibition of KRAS in human MDA-MB-231 cells assessed as reduction in phosphorylated MEK1/2 at Ser217/221 residues protein level at 35 uM measured after 24 hrs by Western blot analysis relative to control; format: cell-based
MCF7 [32] = assay: Induction of apoptosis in human MCF7 cells assessed as live cells at 25 uM measured after 48 hrs by annexinV-FITC/propidium iodide staining based flow cytometry (reference value: 99.71 %); format: functional
[33] = molecular target: GTPase KRas (Homo sapiens) (UniProt P01116); assay: Inhibition of KRAS in human MCF7 cells assessed as reduction in phosphorylated ERK1/2 at Thr185/Tyr187 residues protein level at 25 uM measured after 24 hrs by Western blot analysis relative to control; format: cell-based

**Q.** With `O=P(Oc1ccccc1)(Oc1ccccc1)OC1C2OC3(c4ccccc4)OC(C2O)C(O)C1O3` (centres undefined) as the compound, how does the fold change (FC) [1] read?
**A.** 0.99

**Q.** And the fold change (FC) [2]?
**A.** 1.16

**Q.** What about the Activity (MDA-MB-231 [3]) of the same compound?
**A.** 21.02%

**Q.** What about the inhibition [4] of the same compound?
**A.** Dose-dependent effect

**Q.** What about the Activity (MDA-MB-231 [5]) of the same compound?
**A.** 91.93%

**Q.** And the Activity (MDA-MB-231 [6])?
**A.** Dose-dependent effect

**Q.** And the IC50 (MDA-MB-231 [6]; MDA-MB-231, 48 h)?
**A.** 22.4 µM

**Q.** What about the fold change (FC) [7] of the same compound?
**A.** 0.61

**Q.** And the Activity (MDA-MB-231 [8])?
**A.** Dose-dependent effect

**Q.** And the fold change (FC) [9]?
**A.** 1.11

**Q.** And the Activity (MCF7 [10])?
**A.** 61.44%

**Q.** And the Activity (MDA-MB-231 [11])?
**A.** 0.39%

**Q.** What about the Activity (MDA-MB-231 [12]) of the same compound?
**A.** 7.3%

**Q.** What about the fold change (FC) [13] of the same compound?
**A.** 0.91

**Q.** And the Activity (MCF7 [14])?
**A.** 0.37%

**Q.** And the fold change (FC) [15]?
**A.** 0.97

**Q.** What about the Activity (MCF7 [16]) of the same compound?
**A.** 66.88%

**Q.** And the fold change (FC) [17]?
**A.** 1.11

**Q.** And the fold change (FC) [18]?
**A.** 1.15

**Q.** What about the Activity (MDA-MB-231 [19]) of the same compound?
**A.** 0.64%

**Q.** And the fold change (FC) [20]?
**A.** 0.42

**Q.** What about the fold change (FC) [21] of the same compound?
**A.** 1.25

**Q.** What about the Activity (MDA-MB-231 [22]) of the same compound?
**A.** 0.07%

**Q.** What about the fold change (FC) [23] of the same compound?
**A.** 0.85

**Q.** And the fold change (FC) [24]?
**A.** 0.97

**Q.** What about the Activity (MDA-MB-231 [25]) of the same compound?
**A.** 40.07%

**Q.** And the fold change (FC) [26]?
**A.** 0.91

**Q.** What about the fold change (FC) [27] of the same compound?
**A.** 1.05

**Q.** And the fold change (FC) [28]?
**A.** 0.99

**Q.** What about the inhibition [29] of the same compound?
**A.** Dose-dependent effect

**Q.** What about the Activity (MCF7 [30]) of the same compound?
**A.** 32.46%

**Q.** And the fold change (FC) [31]?
**A.** 0.53

**Q.** And the Activity (MCF7 [32])?
**A.** 36.83%

**Q.** What about the fold change (FC) [33] of the same compound?
**A.** 0.91
